Where two headings read alike, the source gives them in different places.

The source of these data is patent publication US4954348A, “Non-ionic polyol contrast media from ionic contrast media” (Cook Imaging Corporation, priority 1988, dated 1990).

A short description of data set [1]: stability, solubility, osmolality, viscosity and systemic toxicity, conventional tests (overall statement). Particulars: existing compounds serving as control. The method, then: (§1) All compounds were tested for stability, solubility, osmolality, viscosity and systemic toxicity, using conventional tests.
For another data set, the system named is Rats (female Lewis). The experiment in a line: i.v. LD50 in rats (systemic toxicity). The conditions noted are these: 300 mg I/ml, 37° C., injection rate 5 ml/min. The class given is in vivo. The procedure: as §1
(§2) *All at 300 mg I/ml concentration and 37° C. Injection rates 1
(§3) ml/min in mice and 5 ml/min in rats.
(§4) ^° Ref. Salvesen, S. in Acta Radiol. Suppl. 362, p. 73, 1980.

The nature of data set [2]: Osmolality at 300 mg I/ml, 37° C. The data set is classed as physicochemical. Particulars: for Osmolality: 300 mg I/ml, 37° C.; for osmolality versus existing compounds: existing compounds serving as control. The method, then:
as §1, §2

A short description of data set [3]: Viscosity at 300 mg I/ml, 37° C. The class given is physicochemical. The method, then: as §1, §2
The test system of another data set is Mice (female CD-1). The data set can be described thus: i.v. LD50 in mice (systemic toxicity). The class given is in vivo. The conditions noted are these: 300 mg I/ml, 37° C., injection rate 1 ml/min. The method, then:
as §1, §2, §3, §4

The conditions of data set [4]: 300 mg I/ml, 37° C.; ^+ Ref. Handbook of Experimental Pharmacology, Vol. 73; cited from earlier work.
For data set [5] the following is noted: 300 mg I/ml, 37° C.; ^+ Ref. Handbook of Experimental Pharmacology, Vol. 73; cited from earlier work. The source holds these as a separate data set.
The conditions of data set [6]: must be dispensed in lyophilized form and reconstituted prior to use; cited from earlier work.

Regarding `CC(=O)N(CC(O)CO)c1c(I)c(C(=O)NCCO)c(I)c(C(=O)NCC(O)CO)c1I` (stereo not shown) [VIII, 5-(N-2,3-Dihydroxypropylacetamido)-2,4,6-triiodo-N-(2,3-dihydroxypropyl)-N'-(2-hydroxyethyl)isophthalamide], in data set [1], the “stability, solubility, viscosity and systemic toxicity (other categories) versus existing compounds” value was “comparable or superior properties in the other categories”. In addition, the “i.v. LD50” value with Rats (female Lewis) is on record as 14-16.5 gI/kg. In data set [2], the Osmolality amounted to 524 mOsm/kg and the “osmolality versus existing compounds” value is “substantially reduced osmolality”. The molecule further returned a Viscosity in data set [3] of 4.9 cps. The “i.v. LD50” value with Mice (female CD-1) is 18.8 gI/kg.
Consider `CC(=O)N(CC(O)CO)c1c(I)c(C(=O)NCC(O)CO)c(I)c(C(=O)NCC(O)CO)c1I` (stereo not shown) [Iohexol], for which the “i.v. LD50” value is listed as 13.5-15 gI/kg in the data set with Rats (female Lewis) and 17.9 gI/kg in the data set on Mice (female CD-1). Moreover, the Osmolality in data set [4] is on record as 690 mOsm/kg. In addition, the Viscosity in data set [5] is listed as 6.1 cps.
As to `CC(=O)Nc1c(I)c(C(=O)N[C@H]2C(O)O[C@H](CO)[C@@H](O)[C@@H]2O)c(I)c(N(C)C(C)=O)c1I` (stereo partly shown) [Metrizamide], the hydrolytic stability result in data set [6] is reported as “hydrolytic instability”.
In the case of `C[C@H](O)C(=O)Nc1c(I)c(C(=O)NC(CO)CO)c(I)c(C(=O)NC(CO)CO)c1I` [Iopamidol], the “i.v. LD50” value in the data set on Rats (female Lewis) was 12.2-13 gI/kg; in the data set with Mice (female CD-1), 17-18.5 gI/kg. In data set [4], the Osmolality was 619 mOsm/kg. Besides, the Viscosity in data set [5] was 4.5 cps.
On to `CNC(=O)c1c(I)c(C(=O)N[C@H](CO)[C@@H](O)CO)c(I)c(N(CC(O)CO)C(C)=O)c1I` (relative stereo) [XVI, 5-(N-2,3-Dihydroxypropylacetamido)-2,4,6-triido-N-methyl-N'-(1,3,4-trihydroxy-erythro-but-2-yl)-isophthalamide], for which the “stability, solubility, viscosity and systemic toxicity (other categories) versus existing compounds” value in data set [1] is “comparable or superior properties in the other categories”. For the same molecule, the “i.v. LD50” value in the data set on Rats (female Lewis) was 13.5-14 gI/kg; in the data set on Mice (female CD-1), 12-13 gI/kg. The same molecule yielded an Osmolality in data set [2] of 513 mOsm/kg. Further, the “osmolality versus existing compounds” value in data set [2] was “substantially reduced osmolality”. Moreover, the Viscosity in data set [3] was 5.2 cps.
With `COCC(=O)Nc1c(I)c(C(=O)NCC(O)CO)c(I)c(C(=O)N(C)CC(O)CO)c1I` (stereo not shown) [Iopromide], the results for the “i.v. LD50” value in the data set with Rats (female Lewis) and in the data set with Mice (female CD-1) were 10-11.5 gI/kg and 11.5-13.0 gI/kg, respectively. Also, in data set [4], the Osmolality is 607 mOsm/kg. Further, the Viscosity in data set [5] is listed as 4.8 cps.
